Reference: patent EP4631502A1 (Nicoventures Trading Limited, priority 2024, dated 2025)

Columns and labels:
Adenosine A1 receptor = Adenosine A1 receptor (Rattus norvegicus, UniProt P25099); conditions: read-out: IC50 Mean (footnote: Literature value determined in rat), Ji et al., J Med. Chem. 39, 781-788 (1996); cited from earlier work
[1] = biological target: T1, Human adenosine A1 receptors (Homo sapiens, UniProt P30542); assay: biochemical; conditions: [3H]-DPCPX 1 nM, 60 min, 27°C
T1 sequence (P30542 1-326): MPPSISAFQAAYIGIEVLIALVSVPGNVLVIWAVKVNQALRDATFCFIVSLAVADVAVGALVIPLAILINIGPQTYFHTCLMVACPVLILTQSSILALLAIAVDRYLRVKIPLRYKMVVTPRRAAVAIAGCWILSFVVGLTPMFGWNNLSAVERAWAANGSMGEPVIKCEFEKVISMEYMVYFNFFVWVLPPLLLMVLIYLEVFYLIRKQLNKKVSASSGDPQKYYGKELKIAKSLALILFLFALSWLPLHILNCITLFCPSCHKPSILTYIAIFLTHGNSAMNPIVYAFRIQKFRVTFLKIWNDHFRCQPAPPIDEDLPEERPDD
Description: Binding experiments were performed according to the data sheet provided by the supplier of the receptor (Perkin Elmer) with modifications:
Approximately 2.4-3 µg protein-containing membranes were incubated for 60 min in a total volume of 100 µL at 27°C: assay buffer:
Test compound data are presented as specific radioligand binding to the receptor.
(§1) In case of ill-defined curves or algorithm-generated minima below the defined non-specific binding, the IC50 value was determined by graphical extrapolation.

[2] = biological target: human adenosine A2A receptors (Homo sapiens, UniProt P29274); assay: Adenosine A2A receptor radioligand binding assay ([125I]-ZM241385 competition, membranes of HEK293 cells)
Sequence of human adenosine A2A receptors (P29274 whole entry): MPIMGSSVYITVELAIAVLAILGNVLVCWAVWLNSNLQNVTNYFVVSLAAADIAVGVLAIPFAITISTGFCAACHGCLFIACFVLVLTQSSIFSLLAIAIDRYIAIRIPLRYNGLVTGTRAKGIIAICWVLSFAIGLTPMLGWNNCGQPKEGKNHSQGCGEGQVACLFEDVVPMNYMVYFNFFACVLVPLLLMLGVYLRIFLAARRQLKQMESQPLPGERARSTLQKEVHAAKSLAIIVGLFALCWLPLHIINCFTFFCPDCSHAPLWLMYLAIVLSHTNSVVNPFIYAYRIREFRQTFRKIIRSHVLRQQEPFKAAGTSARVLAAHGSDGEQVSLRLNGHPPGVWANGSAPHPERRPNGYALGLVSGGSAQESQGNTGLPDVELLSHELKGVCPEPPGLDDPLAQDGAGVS
Description: Approximately 0.4-0.9 µg protein-containing membranes were incubated for 60 min in a total volume of 100 µL at 37°C. assay buffer:
Test compound data are presented as specific radioligand binding to the receptor. Specific binding is defined as the difference between the total binding and the non-specific binding determined in the presence of the reference compound as detailed in the previous sections.
as §1

Sequence of Adenosine A1 receptor (P25099 whole entry): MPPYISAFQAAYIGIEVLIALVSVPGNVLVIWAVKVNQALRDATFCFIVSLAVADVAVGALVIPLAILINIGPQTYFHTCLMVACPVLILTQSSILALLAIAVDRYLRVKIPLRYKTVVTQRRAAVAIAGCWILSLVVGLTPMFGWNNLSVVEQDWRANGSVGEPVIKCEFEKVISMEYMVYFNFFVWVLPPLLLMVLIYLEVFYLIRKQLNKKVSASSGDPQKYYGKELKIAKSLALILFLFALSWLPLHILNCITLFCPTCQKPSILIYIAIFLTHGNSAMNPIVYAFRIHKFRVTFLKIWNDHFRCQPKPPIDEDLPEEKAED

IC50 ([1]; IC50 1.M, first measurement): 617000 nM | IC50 ([1]; IC50 2.M, second measurement): 122000 nM | IC50 ([2]; IC50 1.M, first measurement, [125I]-ZM241385 20000 cpm, 60 min, 37°C): 1300 nM | IC50 ([2]; IC50 2.M, second measurement, [125I]-ZM241385 20000 cpm, 60 min, 37°C): 2100 nM | IC50 ([2]; IC50 Mean, mean of 1.M and 2.M): 1700 nM
SMILES: COc1cc2oc(-c3ccc(O)cc3)cc(=O)c2c(O)c1OC [Cirsimaritin]
IC50 (Adenosine A1 receptor): 1200 nM
